Source: US5082838A, “Sulfur-containing fused pyrimidine derivatives, their production and use” (Takeda Chemical Industries, Ltd., priority 1989, dated 1992)

Tests used:
Interleukin 1 Production = assay: Inhibitory effects on interleukin 1 production stimulated by lipopolysaccharide in rat intraperitoneal macrophage (LAF assay); type: cell-based, Male Sprague-Dawley rats; details: LPS 50 ug/ml; for inhibition at 10 µM: 10^-5 Molar; for inhibition at 1 µM: 10^-6 Molar
Procedure: Inhibitory Effects on Interleukin 1 Production Simulated by Lipopolysaccharide in the Rat Intraperitoneal Macrophage
Male Sprague-Dawley rats (8 weeks old, body weight: 300 g, Clea Japan) were killed by exsanguination under etherization. 20 ml of a culture solution (RPMI-1640) was intraperitoneally administered to each rat, and the abdominal part thereof was massaged, followed by abdominal section to recover the culture solution. After centrifugation of the solution, the cell pellet obtained was resuspended in 4 ml of the culture solution, superposed on 5 ml of Ficoll-Paque solution (lymphocyte separation medium, Wako Junyaku, Japan), and centrifuged at 450 g at room temperature for 15 minutes. The cells located in the boundary between the Ficoll-Paque solution and the culture solution were collected and washed 3 times with the culture solution. The resulting cells were suspended in the culture solution again, which was used as a macrophage-suspended solution (3×10^5 cells/ml).
Interleukin 1 was produced in the following manner. Macrophage (3×10^5 cells) in a 96-well microtiter plate was preincubated in a CO 2 incubator for 1 hour with each of the compounds shown in Table 5. Then, 50 ug/ml of lipopolysaccharide (Escherichia coli 0111 B4, Difco) was added thereto. After cultivation was further continued for 20 hours, the activity of interleukin 1 in the culture supernatant was measured by an LAF (lymphocyte activating factor) assay. Experiments were carried out in a triplicate manner.
The LAF assay was conducted as the following. Thymocytes (1-1.5×10^6 cells) of C3H/HeJ mice were added to phytohemagglutinin (PHA) P (diluted 1/2000; Difico) and the macrophage culture solution diluted 1/10 or 1/30, and cultivated in a CO2 incubator. After 48 hours, ^3 H-thymidine of 0.5 uCi was added thereto and cultivation was further continued for 24 hours. Then, the amount of ^3 H-thymidine entrapped in the thymocytes was measured. The radioactivity entrapped in the thymocytes was taken as the amount of interleukin-1.
We conducted this process partly modifying the method of R. C. Newton et al. [J. Leukocyte, Biology 39, 299-3111 (1986)].

[1] = test system: Feverescence of Rat Due to Lipopolvsaccharide (LPS); assay: Antipyretic activity in LPS-induced febrile rats; type: in vivo, Male JcL;SD rats; details: p.o.
Procedure: Activity of Depressing Feverescence of Rat Due to Lipopolvsaccharide (LPS)
Male JcL;SD rats 7 weeks old (body weight: about 250 g, Clea Japan) were used. Each group had 6 rats. The rats were reared in individual cages from the day before, and then the basal body temperature was measured in the rectums using a digital thermometer (Model D221-6, Takara Kogyo) 3 times at intervals of 1 hour. After the third measurement of the body temperature, the compounds shown in Table 6 were orally administered in a volume of 1 ml per 100 g of body weight. LPS (Escherichia coli 0111 B4, Difco) was administered from their tail veins in an amount of 0.2 ml per 100 g of body weight 1 hour after the administration of the compounds.
The body temperature was measured from 3 to 5 hours after that at intervals of 1 hour. The antipyretic activity of the compounds was evaluated by the difference in body temperature between a control group and a compound-administered group. Statistical analysis was carried out by the Dunnett's test.

endothelin constriction = assay: Inhibitory effects on endothelin induced contraction in porcine coronary arteries (LAD rings); type: cell-based; details: Sus scrofa, endothelin 3×10^-9 M, read-out: Inhibition (%) of maximum contraction by endothelin; for inhibition at 10 µM: 10^-5 M; for inhibition at 1 µM: 10^-6 M
Procedure: Inhibitory Effects of the Compounds on […] Induced Contraction in Porcine Coronary Arteries
Ring preparation of porcine left arterior descending coronary arteries (LAD) were suspended in 20 ml baths containing Krebs-Henseleit solutions at 37° C. gassed with 97% O2 -3% CO2. Endothelin (3×10^-9 M) was added to the baths, and after the constriction reached the steady state, the compounds at concentrations of […] and 10^-5 M (Examples 45, 48 and 127) were added to the bath. Then, the relaxation activity was examined. The relaxation activity of the compounds was expressed as % inhibition from the maximum contraction by endothelin.

[2] = test system: Endothelin Induced Pressor and Depressor Responses; assay: Inhibitory effects on endothelin induced pressor and depressor responses in conscious beagle dogs; type: in vivo
Description: Inhibitory Effects on Endothelin Induced Pressor and Depressor Responses in Conscious Beagle Dogs
Using 10 male beagles (12-14 kg, 8-10 months old), a polyethylene cannula (PEG-100) was inserted into each of the left femoral artery and vein of each beagle after pentobarbital anesthesia. The experiment was started from 3 to 7 days after the operation. The cannula was connected to a pressure transducer to measure the systemic blood pressure. The endothelin antagonistic activity of the compound obtained in Example 65 was examined, taking the depressor and pressor responses due to the intravenous administration of endothelin as its indication. […]

[3] = test system: Ischemic and Reperfused Rat Heart; assay: Depressing effect against evolution of infarct size in ischemic and reperfused rat heart; type: in vivo, Male Wistar rats; details: 100 mg/kg p.o. 2 hours before occlusion and 5 hours after reperfusion; n = 5; control 36.7 ± 1.4 (12); P < 0.01
Procedure: Depressing Effect Against Evolution of Infarct Size in Ischemic and Reperfused Rat Heart
Male Wistar rats were medianly dissected under pentobarbital anesthesia, and left anterior descending coronary artery was occluded at its origin for 1 hour, followed by resumption of Blood flowing. The chest was closed 30 to 60 minutes after the reperfusion, and the rates were kept under conscious state. After 24 hours, the rats were anesthetized again and the hearts were excised. The left ventricle of each heart was divided into six parts, and these divided parts were stained with 1% triphenyltetrazolium chloride solution at 37° C. for 15 minutes. Then, infarcted portions were weighed.
The compound obtained in Example 127 was orally administered in a dose of 100 mg/kg as a gum arabic suspension 2 hours before the occlusion and 5 hours after the reperfusion.

NGF = assay: Promoting effects on synthesis and secretion of NGF in glia cells (C6 glioma), enzyme immuno assay; type: cell-based; details: 24 hours, read-out: Promoting Activity (%) of NGF synthesis and secretion (relative to control = 100); for activity at 30 µM: 3 × 10^-5 M; for activity at 3 µM: 3 × 10^-6 M
Procedure: Promoting Effects of the Compounds on Synthesis and Secretion of NGF in Glia Cells
A 48 well-plate was seeded with glia strains cells (C6 glioma) at a rate of 2.5×10^4 cells/well, which was cultivated in Dulbecco's modified eagle's medium (DMEM) containing 10% fetal calf serum. When the cells became confluent (2 to 3 days), each of the following compounds of the present invention was added thereto, and it was cultivated in serum free-DMEM for 24 hours. NGF secreted in the culture supernatant was assayed by enzyme immuno assay. An amount of NGF is shown in a relative value to 100, the value of control (without addition of the compound). The compounds were added in a solution of DMSO, at an amount of 1/100 (V/V) of a medium (V/V). In a control, DMSO alone was added.

[4] = 1 mg/kg, i.v., 5 min after administration, n = 4
[5] = 1 mg/kg, i.v., 1 hr after administration, n = 4
[6] = 1 mg/kg, i.v., 2 hr after administration, n = 4
[7] = 1 mg/kg, i.v., 4 hr after administration, n = 4
[8] = 1 mg/kg, i.v., 6 hr after administration, n = 4
[9] = 10 mg/kg, p.o., 1 hr after administration, n = 3
[10] = 10 mg/kg, p.o., 2 hr after administration, n = 3
[11] = 10 mg/kg, p.o., 4 hr after administration, n = 3
[12] = 10 mg/kg, p.o., 8 hr after administration, n = 3

## O=c1c(-c2ccccc2)c2n(c(=O)n1-c1ccccc1)CCS2(=O)=O [Example 63]
Interleukin 1 Production
  inhibition at 10 µM: 98%

## Cn1c(=O)c(-c2ccccc2)c2n(c1=O)CCS2(=O)=O [Example 59]
Interleukin 1 Production
  inhibition at 10 µM: 89%

## 9-Formyl-7-propyl-3,4-dihydro-2H,6H-pyrimido[6,1-b][1,3]thiazine-6,8(7H)-dione [Example 101]
[1]; 100 mg/kg
  Antipyretic Activity (difference in body temperature vs. control group): -0.87 °C

## CCCn1c(=O)c(-c2ccccc2)c2n(c1=O)CC=CS2 [Example 127, 9-Phenyl-7-propyl-4H,6H-pyrimido[6,1-b][1,3]thiazine6,8(7H)-dione]
Endothelin constriction
  inhibition at 10 µM: 90%
  inhibition at 1 µM: 82.3%
[2]; [4]
  % inhibition of Depressor Response: 86 ± 9%
  % inhibition of Pressor Response: 100%
[2]; [5]
  % inhibition of Depressor Response: 74 ± 11%
  % inhibition of Pressor Response: 55 ± 7%
[2]; [6]
  % inhibition of Depressor Response: 57 ± 10%
  % inhibition of Pressor Response: 55 ± 7%
[2]; [7]
  % inhibition of Depressor Response: 31 ± 13%
  % inhibition of Pressor Response: 38 ± 15%
[2]; [8]
  % inhibition of Depressor Response: 30 ± 8%
  % inhibition of Pressor Response: 32 ± 10%
[2]; [9]
  % inhibition of Depressor Response: 34 ± 9%
  % inhibition of Pressor Response: 37 ± 10%
[2]; [10]
  % inhibition of Depressor Response: 81 ± 10%
  % inhibition of Pressor Response: 85 ± 10%
[2]; [11]
  % inhibition of Depressor Response: 67 ± 12%
  % inhibition of Pressor Response: 76 ± 12%
[2]; [12]
  % inhibition of Depressor Response: 50 ± 0%
  % inhibition of Pressor Response: 43 ± 4%
[3]
  ratio of the weight of the infarcted region to the weight of the left ventricles: 26.8 ± 3.1%

## CCn1c(=O)c(-c2ccccc2)c2n(c1=O)CCCS2 [Example 17]
Interleukin 1 Production
  inhibition at 10 µM: 93%

## CCCCCn1c(=O)c(-c2ccccc2)c2n(c1=O)CCC[S+]2[O-] (stereo not shown) [Example 50]
Interleukin 1 Production
  inhibition at 10 µM: 98%
  inhibition at 1 µM: 58%

## O=c1c(-c2ccccc2)c2n(c(=O)n1Cc1ccccc1)CCCS2 [Example 36, 7-benzyl-9-phenyl-3,4-dihydro-2H,6H-pyrimido[6,1-b][1,3]thiazine-6,8(7H)-dione]
NGF
  activity at 30 µM: 102 ± 2%
  activity at 3 µM: 240 ± 16%

## CCCCn1c(=O)c(-c2ccccc2)c2n(c1=O)CCC[S+]2[O-] (stereo not shown) [Example 45]
Endothelin constriction
  inhibition at 10 µM: 100%
  inhibition at 1 µM: 6.2%
Interleukin 1 Production
  inhibition at 10 µM: 75%
  inhibition at 1 µM: 30%

## O=c1c(-c2ccccc2)c2n(c(=O)n1Cc1ccccc1)CC=CS2 [Example 129, 7-Benzyl-9-phenyl-4H,6H-pyrimido[6,1-b][1,3]thiazine-6,8(7H)-dione]
NGF
  activity at 30 µM: 117 ± 6%
  activity at 3 µM: 197 ± 9%

## CCCn1c(=O)c(-c2ccccc2)c2n(c1=O)CCCS2 [Example 1, 9-Phenyl-7-propyl-3,4-dihydro-2H,6H-pyrimido[6,1-b][1,3] thiazine-6,8(7H)-dione]
NGF
  activity at 30 µM: 117 ± 34%
  activity at 3 µM: 168 ± 6%

## Cn1c(=O)c(-c2ccccc2)c2n(c1=O)CCCS2(=O)=O [Example 64]
Interleukin 1 Production
  inhibition at 10 µM: 100%
  inhibition at 1 µM: 60%
[1]; 25 mg/kg
  Antipyretic Activity (difference in body temperature vs. control group): -0.68 °C
[1]; 50 mg/kg
  Antipyretic Activity (difference in body temperature vs. control group): -0.82 °C
[1]; 100 mg/kg
  Antipyretic Activity (difference in body temperature vs. control group): -1.13 °C

## CCCCn1c(=O)c(-c2ccccc2)c2n(c1=O)CCCS2 [Example 23]
[1]; 100 mg/kg
  Antipyretic Activity (difference in body temperature vs. control group): -0.72 °C

## CCn1c(=O)c(-c2ccccc2)c2n(c1=O)CCCS2(=O)=O [Example 65]
Interleukin 1 Production
  inhibition at 10 µM: 100%
  inhibition at 1 µM: 40%
[1]; 100 mg/kg
  Antipyretic Activity (difference in body temperature vs. control group): -0.95 °C

## CCn1c(=O)c(-c2ccccc2)c2n(c1=O)CCC[S+]2[O-] (stereo not shown) [Example 43]
Interleukin 1 Production
  inhibition at 10 µM: 52%
[1]; 100 mg/kg
  Antipyretic Activity (difference in body temperature vs. control group): -0.70 °C

## CCCC/C=C/c1c2n(c(=O)n(CCC)c1=O)CCS2 [Example 106]
[1]; 100 mg/kg
  Antipyretic Activity (difference in body temperature vs. control group): -0.53 °C

## CCCn1c(=O)c(-c2ccccc2)c2n(c1=O)CCS2(=O)=O [Example 61]
NGF
  activity at 30 µM: 109 ± 12%
  activity at 3 µM: 177 ± 8%

## CCCCn1c(=O)c(-c2ccccc2)c2n(c1=O)CCS2(=O)=O [Example 62]
Interleukin 1 Production
  inhibition at 10 µM: 96%

## O=c1c(-c2ccccc2)c2n(c(=O)n1-c1ccccc1)CCCS2(=O)=O [Example 67]
Interleukin 1 Production
  inhibition at 10 µM: 98%
  inhibition at 1 µM: 10%

## CCCn1c(=O)c(-c2ccccc2)c2n(c1=O)CCCS2(=O)=O [Example 58, 1,1-Dioxo-9-phenyl-7-propyl-3,4-dihydro-2H,6H-pyrimido [6,1-b][1,3]thiazine-6,8(7H)-dione]
NGF
  activity at 30 µM: 140 ± 2%
  activity at 3 µM: 164 ± 25%

## CCCn1c(=O)c(-c2ccccc2)c2n(c1=O)CC[S+]2[O-] (stereo not shown) [Example 48]
Endothelin constriction
  inhibition at 10 µM: 86.6%
  inhibition at 1 µM: 24.6%
